Experimental data: US12227500B2, “Substituted pyrrolo[2,3-b]pyridines for suppressing toxic endoplasmic reticulum stress” (THE TRUSTEES OF COLUMBIA UNIVERSITY IN THE CITY OF NEW YORK, priority 2018, dated 2025)

Experiments:
Assay in all cases: Radiolabeled ATP kinase assay, panel of 371 kinases (Table S6)
Type in all cases: biochemical
[1] = target: T1, panel of 371 human kinases (Homo sapiens, UniProt P41240); details: CSK; 0.1 μM; 10 μM ATP; read-out: % Enzyme Activity (relative to DMSO controls)
T1 construct: purchased Reaction Biology Corp
Text: (§1) ; FIG. 38C). […]. Further targeted analyses, such as genetic knock-down or knock-out, may be warranted to parse the role of these additional kinases in our model of neurodegeneration.

[2] = target: T2, panel of 371 human kinases (Homo sapiens, UniProt Q9UF33); details: EPHA6; 0.1 μM; 10 μM ATP; read-out: % Enzyme Activity (relative to DMSO controls)
T2 construct: purchased Reaction Biology Corp
Text: as §1

[3] = target: T3, panel of 371 human kinases (Homo sapiens, UniProt O94806); details: PKCnu/PRKD3; 0.1 μM; 10 μM ATP; read-out: % Enzyme Activity (relative to DMSO controls)
T3 construct: purchased Reaction Biology Corp
Text: as §1

[4] = target: T4, panel of 371 human kinases (Homo sapiens, UniProt Q9UPE1); details: MSSK1/STK23; 0.1 μM; 10 μM ATP; read-out: % Enzyme Activity (relative to DMSO controls)
T4 construct: purchased Reaction Biology Corp
T4 sequence (Q9UPE1 whole entry): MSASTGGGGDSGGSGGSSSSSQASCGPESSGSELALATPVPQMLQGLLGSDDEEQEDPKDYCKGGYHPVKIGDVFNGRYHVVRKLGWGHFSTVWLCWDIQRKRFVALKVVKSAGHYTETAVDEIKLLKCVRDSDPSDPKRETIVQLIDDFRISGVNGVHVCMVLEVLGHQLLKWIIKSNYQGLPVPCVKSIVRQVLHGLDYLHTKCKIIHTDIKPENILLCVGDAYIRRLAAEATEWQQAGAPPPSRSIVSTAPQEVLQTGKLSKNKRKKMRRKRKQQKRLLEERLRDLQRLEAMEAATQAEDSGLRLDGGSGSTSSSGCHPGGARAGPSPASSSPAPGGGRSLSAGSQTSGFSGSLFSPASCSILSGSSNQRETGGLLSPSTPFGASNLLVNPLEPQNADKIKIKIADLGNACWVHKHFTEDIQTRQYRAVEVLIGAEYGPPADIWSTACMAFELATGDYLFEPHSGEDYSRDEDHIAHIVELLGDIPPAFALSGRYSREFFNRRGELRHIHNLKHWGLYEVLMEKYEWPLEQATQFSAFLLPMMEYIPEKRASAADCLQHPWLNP
Text: as §1

[5] = target: T5, panel of 371 human kinases (Homo sapiens, UniProt Q9Y463); details: DYRK1B; 0.1 μM; 10 μM ATP; read-out: % Enzyme Activity (relative to DMSO controls)
T5 construct: purchased Reaction Biology Corp
Text: as §1

[6] = target: T6, panel of 371 human kinases (Homo sapiens, UniProt P80192); details: MLK1/MAP3K9; 0.1 μM; 10 μM ATP; read-out: % Enzyme Activity (relative to DMSO controls)
T6 construct: purchased Reaction Biology Corp
Text: as §1

[7] = target: T7, panel of 371 human kinases (Homo sapiens, UniProt O75385); details: ULK1; 0.1 μM; 10 μM ATP; read-out: % Enzyme Activity (relative to DMSO controls)
T7 construct: purchased Reaction Biology Corp
Text: as §1

[8] = target: T8, panel of 371 human kinases (Homo sapiens, UniProt P51812); details: RSK2; 0.1 μM; 10 μM ATP; read-out: % Enzyme Activity (relative to DMSO controls)
T8 construct: purchased Reaction Biology Corp
T8 sequence (P51812 whole entry): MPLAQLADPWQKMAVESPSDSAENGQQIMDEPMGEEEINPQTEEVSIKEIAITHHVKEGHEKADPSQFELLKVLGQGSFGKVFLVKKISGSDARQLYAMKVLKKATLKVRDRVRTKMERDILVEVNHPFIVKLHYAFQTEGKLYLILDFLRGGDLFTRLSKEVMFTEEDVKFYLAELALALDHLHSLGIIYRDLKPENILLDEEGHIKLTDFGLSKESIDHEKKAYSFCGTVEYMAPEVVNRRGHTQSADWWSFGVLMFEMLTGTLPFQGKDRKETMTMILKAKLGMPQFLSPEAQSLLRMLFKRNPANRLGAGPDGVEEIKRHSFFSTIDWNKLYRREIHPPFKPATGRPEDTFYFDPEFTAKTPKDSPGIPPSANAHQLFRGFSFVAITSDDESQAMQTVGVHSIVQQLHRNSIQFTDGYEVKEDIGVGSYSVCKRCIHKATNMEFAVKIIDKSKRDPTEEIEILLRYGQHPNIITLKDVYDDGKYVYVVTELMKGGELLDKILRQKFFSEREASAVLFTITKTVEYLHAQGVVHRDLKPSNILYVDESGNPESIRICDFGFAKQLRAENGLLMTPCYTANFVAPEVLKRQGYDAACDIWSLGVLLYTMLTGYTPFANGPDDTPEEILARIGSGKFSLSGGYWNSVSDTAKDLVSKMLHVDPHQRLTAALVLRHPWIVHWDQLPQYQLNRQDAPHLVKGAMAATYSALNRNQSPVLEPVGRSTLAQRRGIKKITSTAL
Text: as §1

[9] = target: T9, panel of 371 human kinases (Homo sapiens, UniProt O95382); details: MEKK6; 0.1 μM; 10 μM ATP; read-out: % Enzyme Activity (relative to DMSO controls)
T9 construct: purchased Reaction Biology Corp
Text: as §1

[10] = target: T10, panel of 371 human kinases (Homo sapiens, UniProt P42680); details: TEC; 0.1 μM; 10 μM ATP; read-out: % Enzyme Activity (relative to DMSO controls)
T10 construct: purchased Reaction Biology Corp
Text: as §1

[11] = target: T11, panel of 371 human kinases (Homo sapiens, UniProt P51617); details: IRAK1; 0.1 μM; 10 μM ATP; read-out: % Enzyme Activity (relative to DMSO controls)
T11 construct: purchased Reaction Biology Corp
Text: as §1

[12] = target: T12, panel of 371 human kinases (Homo sapiens, UniProt Q8IYT8); details: ULK2; 0.1 μM; 10 μM ATP; read-out: % Enzyme Activity (relative to DMSO controls)
T12 construct: purchased Reaction Biology Corp
Text: as §1

[13] = target: T13, panel of 371 human kinases (Homo sapiens, UniProt P43403); details: ZAP70; 0.1 μM; 10 μM ATP; read-out: % Enzyme Activity (relative to DMSO controls)
T13 construct: purchased Reaction Biology Corp
T13 sequence (P43403 whole entry): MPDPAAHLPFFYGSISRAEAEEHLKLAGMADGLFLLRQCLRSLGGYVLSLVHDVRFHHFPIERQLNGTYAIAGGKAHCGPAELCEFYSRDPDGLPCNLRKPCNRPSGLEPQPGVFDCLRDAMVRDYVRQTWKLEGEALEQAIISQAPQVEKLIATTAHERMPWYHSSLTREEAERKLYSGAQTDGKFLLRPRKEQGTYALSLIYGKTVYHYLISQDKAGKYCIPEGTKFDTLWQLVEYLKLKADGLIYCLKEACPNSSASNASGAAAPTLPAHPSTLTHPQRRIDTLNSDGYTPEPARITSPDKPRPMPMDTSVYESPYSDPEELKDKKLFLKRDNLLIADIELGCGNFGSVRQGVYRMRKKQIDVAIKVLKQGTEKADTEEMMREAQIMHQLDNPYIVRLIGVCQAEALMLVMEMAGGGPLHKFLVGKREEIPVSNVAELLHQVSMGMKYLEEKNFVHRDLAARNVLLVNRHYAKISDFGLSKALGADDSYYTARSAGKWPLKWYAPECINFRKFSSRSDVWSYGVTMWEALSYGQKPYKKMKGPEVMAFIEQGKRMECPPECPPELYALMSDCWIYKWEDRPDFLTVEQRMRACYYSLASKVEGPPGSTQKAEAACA
Text: as §1

[14] = target: T14, panel of 371 human kinases (Homo sapiens, UniProt P35968); details: KDR/VEGFR2; 0.1 μM; 10 μM ATP; read-out: % Enzyme Activity (relative to DMSO controls)
T14 construct: purchased Reaction Biology Corp
Text: as §1

[15] = target: T15, panel of 371 human kinases (Homo sapiens, UniProt O95747); details: OSR1/OXSR1; 0.1 μM; 10 μM ATP; read-out: % Enzyme Activity (relative to DMSO controls)
T15 construct: purchased Reaction Biology Corp
Text: as §1

[16] = target: T16, panel of 371 human kinases (Homo sapiens, UniProt O94921); details: CDK14/cyclin Y (PFTK1); 0.1 μM; 10 μM ATP; read-out: % Enzyme Activity (relative to DMSO controls)
T16 construct: purchased Reaction Biology Corp
Text: as §1

[17] = target: T17, panel of 371 human kinases (Homo sapiens, UniProt Q02156); details: PKCepsilon; 0.1 μM; 10 μM ATP; read-out: % Enzyme Activity (relative to DMSO controls)
T17 construct: purchased Reaction Biology Corp
Text: as §1

[18] = target: T18, panel of 371 human kinases (Homo sapiens, UniProt P49759); details: CLK1; 0.1 μM; 10 μM ATP; read-out: % Enzyme Activity (relative to DMSO controls)
T18 construct: purchased Reaction Biology Corp
T18 sequence (P49759 whole entry): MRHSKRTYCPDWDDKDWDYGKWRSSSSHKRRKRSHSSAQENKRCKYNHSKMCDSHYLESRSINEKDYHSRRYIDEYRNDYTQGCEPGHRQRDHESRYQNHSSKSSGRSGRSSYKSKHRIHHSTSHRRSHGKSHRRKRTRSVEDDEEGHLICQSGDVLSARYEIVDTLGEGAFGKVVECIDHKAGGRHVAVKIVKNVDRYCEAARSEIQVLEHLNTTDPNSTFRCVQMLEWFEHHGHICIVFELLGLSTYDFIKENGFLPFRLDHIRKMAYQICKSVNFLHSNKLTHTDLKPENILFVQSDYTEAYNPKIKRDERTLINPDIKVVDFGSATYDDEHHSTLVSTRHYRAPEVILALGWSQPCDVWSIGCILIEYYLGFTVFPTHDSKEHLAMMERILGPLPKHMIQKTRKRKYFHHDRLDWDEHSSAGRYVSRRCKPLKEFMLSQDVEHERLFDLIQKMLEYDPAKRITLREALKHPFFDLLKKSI
Text: as §1

[19] = target: T19, panel of 371 human kinases (Homo sapiens, UniProt Q86UE8); details: TLK2; 0.1 μM; 10 μM ATP; read-out: % Enzyme Activity (relative to DMSO controls)
T19 construct: purchased Reaction Biology Corp
T19 sequence (Q86UE8 whole entry): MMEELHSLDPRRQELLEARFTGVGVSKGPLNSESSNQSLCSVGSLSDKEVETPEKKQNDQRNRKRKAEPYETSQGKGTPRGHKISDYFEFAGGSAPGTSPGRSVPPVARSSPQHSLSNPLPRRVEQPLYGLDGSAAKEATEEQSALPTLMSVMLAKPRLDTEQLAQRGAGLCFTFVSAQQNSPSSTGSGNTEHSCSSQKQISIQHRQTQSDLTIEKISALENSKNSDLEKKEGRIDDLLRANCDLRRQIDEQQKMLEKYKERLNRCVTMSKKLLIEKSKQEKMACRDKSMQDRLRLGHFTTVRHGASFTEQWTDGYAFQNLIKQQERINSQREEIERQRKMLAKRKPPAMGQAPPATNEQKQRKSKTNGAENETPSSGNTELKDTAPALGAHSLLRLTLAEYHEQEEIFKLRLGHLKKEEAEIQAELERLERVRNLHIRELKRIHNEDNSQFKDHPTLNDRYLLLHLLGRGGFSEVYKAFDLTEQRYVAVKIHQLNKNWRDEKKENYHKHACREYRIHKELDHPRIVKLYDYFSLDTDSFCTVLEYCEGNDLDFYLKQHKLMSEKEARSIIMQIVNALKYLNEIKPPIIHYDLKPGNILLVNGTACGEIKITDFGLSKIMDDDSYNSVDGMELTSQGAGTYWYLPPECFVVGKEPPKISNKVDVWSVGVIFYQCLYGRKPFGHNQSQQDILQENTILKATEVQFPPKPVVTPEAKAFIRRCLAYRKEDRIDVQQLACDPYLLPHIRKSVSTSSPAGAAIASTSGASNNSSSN
Text: as §1

[20] = target: T20, panel of 371 human kinases (Homo sapiens, UniProt Q6P5Z2); details: PKN3/PRK3; 0.1 μM; 10 μM ATP; read-out: % Enzyme Activity (relative to DMSO controls)
T20 construct: purchased Reaction Biology Corp
Text: as §1

[21] = target: T21, panel of 371 human kinases (Homo sapiens, UniProt Q9NR20); details: DYRK4; 0.1 μM; 10 μM ATP; read-out: % Enzyme Activity (relative to DMSO controls)
T21 construct: purchased Reaction Biology Corp
T21 sequence (Q9NR20 whole entry): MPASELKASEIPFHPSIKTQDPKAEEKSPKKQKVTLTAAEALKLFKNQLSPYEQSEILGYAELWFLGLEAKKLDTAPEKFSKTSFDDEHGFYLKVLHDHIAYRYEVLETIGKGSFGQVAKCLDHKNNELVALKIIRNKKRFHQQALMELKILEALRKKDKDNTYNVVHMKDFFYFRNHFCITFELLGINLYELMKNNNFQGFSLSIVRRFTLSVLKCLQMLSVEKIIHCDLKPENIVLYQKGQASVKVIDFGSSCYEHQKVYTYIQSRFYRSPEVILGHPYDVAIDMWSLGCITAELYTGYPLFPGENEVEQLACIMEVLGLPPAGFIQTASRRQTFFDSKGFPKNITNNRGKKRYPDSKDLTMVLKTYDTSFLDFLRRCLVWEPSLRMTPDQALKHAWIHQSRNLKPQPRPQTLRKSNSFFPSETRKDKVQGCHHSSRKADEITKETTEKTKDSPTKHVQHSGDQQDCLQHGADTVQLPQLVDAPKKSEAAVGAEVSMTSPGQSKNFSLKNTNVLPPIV
Text: as §1

[22] = target: T22, panel of 371 human kinases (Homo sapiens, UniProt P46734); details: MEK3; 0.1 μM; 10 μM ATP; read-out: % Enzyme Activity (relative to DMSO controls)
T22 construct: purchased Reaction Biology Corp
T22 sequence (P46734 whole entry): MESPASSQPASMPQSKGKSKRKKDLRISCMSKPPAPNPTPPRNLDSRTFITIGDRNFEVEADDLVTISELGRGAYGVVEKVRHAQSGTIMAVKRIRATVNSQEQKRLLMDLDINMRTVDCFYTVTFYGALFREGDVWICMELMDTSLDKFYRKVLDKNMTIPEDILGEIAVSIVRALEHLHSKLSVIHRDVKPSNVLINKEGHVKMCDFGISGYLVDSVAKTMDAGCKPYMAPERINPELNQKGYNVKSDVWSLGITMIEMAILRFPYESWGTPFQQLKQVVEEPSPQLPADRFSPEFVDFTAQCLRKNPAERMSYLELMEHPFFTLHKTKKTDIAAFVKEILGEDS
Text: as §1

[23] = target: T23, panel of 371 human kinases (Homo sapiens, UniProt Q8TDX7); details: NEK7; 0.1 μM; 10 μM ATP; read-out: % Enzyme Activity (relative to DMSO controls)
T23 construct: purchased Reaction Biology Corp
T23 sequence (Q8TDX7 whole entry): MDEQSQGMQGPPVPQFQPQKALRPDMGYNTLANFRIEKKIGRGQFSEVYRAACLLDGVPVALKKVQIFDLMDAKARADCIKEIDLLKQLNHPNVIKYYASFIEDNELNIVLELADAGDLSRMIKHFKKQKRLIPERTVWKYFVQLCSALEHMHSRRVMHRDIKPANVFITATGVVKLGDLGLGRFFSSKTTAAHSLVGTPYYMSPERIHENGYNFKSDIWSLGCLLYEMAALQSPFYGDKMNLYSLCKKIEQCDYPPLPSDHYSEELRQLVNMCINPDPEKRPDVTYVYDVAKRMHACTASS
Text: as §1

[24] = target: T24, panel of 371 human kinases (Homo sapiens, UniProt P41743); details: PKCiota; 0.1 μM; 10 μM ATP; read-out: % Enzyme Activity (relative to DMSO controls)
T24 construct: purchased Reaction Biology Corp
T24 sequence (P41743 whole entry): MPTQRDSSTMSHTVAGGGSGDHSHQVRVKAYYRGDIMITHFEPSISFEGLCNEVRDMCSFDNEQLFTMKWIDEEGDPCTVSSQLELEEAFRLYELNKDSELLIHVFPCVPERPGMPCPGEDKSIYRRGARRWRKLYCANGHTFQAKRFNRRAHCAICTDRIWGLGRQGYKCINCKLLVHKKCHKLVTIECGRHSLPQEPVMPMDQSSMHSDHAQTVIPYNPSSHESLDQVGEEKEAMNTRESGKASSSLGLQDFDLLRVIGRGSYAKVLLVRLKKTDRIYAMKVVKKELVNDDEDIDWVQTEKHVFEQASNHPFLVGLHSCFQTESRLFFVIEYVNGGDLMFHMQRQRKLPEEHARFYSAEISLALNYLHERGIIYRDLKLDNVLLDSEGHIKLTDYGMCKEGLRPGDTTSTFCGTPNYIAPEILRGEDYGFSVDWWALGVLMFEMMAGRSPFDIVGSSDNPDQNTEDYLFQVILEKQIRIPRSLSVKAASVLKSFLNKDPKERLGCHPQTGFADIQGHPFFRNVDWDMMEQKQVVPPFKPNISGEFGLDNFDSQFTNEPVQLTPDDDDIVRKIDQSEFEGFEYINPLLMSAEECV
Text: as §1

| Compound | remaining activity at 0.1 µM [1] | remaining activity at 0.1 µM [2] | remaining activity at 0.1 µM [3] | remaining activity at 0.1 µM [4] | remaining activity at 0.1 µM [5] | remaining activity at 0.1 µM [6] | remaining activity at 0.1 µM [7] | remaining activity at 0.1 µM [8] | remaining activity at 0.1 µM [9] | remaining activity at 0.1 µM [10] | remaining activity at 0.1 µM [11] | remaining activity at 0.1 µM [12] | remaining activity at 0.1 µM [13] | remaining activity at 0.1 µM [14] | remaining activity at 0.1 µM [15] | remaining activity at 0.1 µM [16] | remaining activity at 0.1 µM [17] | remaining activity at 0.1 µM [18] | remaining activity at 0.1 µM [19] | remaining activity at 0.1 µM [20] | other results |
| --- | --- | --- | --- | --- | --- | --- | --- | --- | --- | --- | --- | --- | --- | --- | --- | --- | --- | --- | --- | --- | --- |
| CN1CCN(Cc2ccc(-c3cnc4[nH]cc(-c5ccc6[nH]ccc6c5)c4c3)cc2)CC1 [Compound 1, 3-(1H-Indol-5-yl)-5-(4-((4-methylpiperazin-1-yl)methyl)phenyl)-1H-pyrrolo[2,3-b]pyridine, reference compound] | 87.5% | 106% | 29.1% | 112% | 43.2% | 48.2% | 89.7% | 105% | 91.6% | 106% | 86.2% | 80.4% | 103% | 76.2% | 102% | 110% | 110% | 58.8% | 93% | 84.7% | remaining activity at 0.1 µM [21]: 111%; remaining activity at 0.1 µM [22]: 101%; remaining activity at 0.1 µM [23]: 94.9%; remaining activity at 0.1 µM [24]: 100% |
| OCCN1CCN(Cc2ccc(-c3cnc4[nH]cc(-c5cccc(Cl)c5)c4c3)cc2)CC1 [Compound 12k, 2-(4-(4-(3-(3-Chlorophenyl)-1H-pyrrolo[2,3-b]pyridin-5-yl)benzyl)piperazin-1-yl)ethan-1-ol] | 90.8% | 98.2% | 13.6% | 103% | 38.3% | 73.7% | 88.8% | 77.3% | 95% | 99.9% | 73.2% | 36% | 102% | 84.7% | 97.1% | 94.9% | 98.6% | 68.6% | 95.2% | 93.7% | remaining activity at 0.1 µM [21]: 101%; remaining activity at 0.1 µM [22]: 99.7%; remaining activity at 0.1 µM [23]: 101%; remaining activity at 0.1 µM [24]: 93% |
